4 molecules from US20230265393A1, “COMPOSITION AND METHODS FOR PRODUCING ADULT LIVER ORGANOIDS” (Rutgers, the State University of New Jersey, priority 2021, published 2023) can be followed below.

Holding throughout (format): cell-based, human
One assay relates to HepG2 cells. The assay can be described thus: 3D organoid culture of HepG2 cells (HepGOs): organoid counts. The note with it: compared to serum-containing growth media (HepG2 GM) (FIG. 3B). An excerpt:
Well-differentiated hepatoma cell lines HepG2, PLC/PRF/5, and HuH7 were maintained as previously described. In initial studies, classical culture media was used, containing high glucose concentration (4.5 g/L) corresponding to systemic hyperglycemia. Low glucose concentrations corresponding to normoglycemia (1 g/L) were utilized in parallel to study the effects on cell proliferation. HepG2 cells were first cultured in monolayer. Once 80-90% confluence was reached the cells were collected and used to start the organoid culture. HepGOs were generated on 48 well tissue culture plates (Grenier™). The plates were left overnight at 37° C. before using them to plate the Matrigel™ matrix. Cells were plated at a concentration of approximately 40 cells per μL of Matrigel™. We used a 25 μL drop/well to form the organoid dome at the center and the organoid dome were overlaid with 250 μLs of human expansion medium (EM) with the multiple EM variations tested. The plates were then incubated for 7 days under standard tissue culture conditions (37° C. and 5% CO2). Media was changed every other day. After 7 days of expansion, the media was replaced with differentiation media (DM). The organoids were cultured for an additional 7 days, at which point the organoids were used for analysis.

The test system of another assay is primary hepatocytes. The assay can be described thus: 3D organoid culture of adult donor-derived primary hepatocytes (HepAOs): organoid formation and expansion. The note with it: single hepatocyte suspensions from adult donors, supplemented EM, over 2 weeks (FIG. 1E). On the procedure: Human hepatic cells were counted and seeded at a concentration of 100 cells per μL of the ECM Matrigel™ (Corning™). The cell-ECM mix were seeded on 24 well plates Greiner™) that had been incubated 24 hours prior at 37° C. A total of 50 μL of Matrigel™ were added to the center of each well to form a dome shaped chamber and incubated for 5-8 minutes at 37° C. before adding 500 μμL of isolation medium to each well. Media specifications and storage times are indicated.
After 4 days, the isolation medium was substituted for expansion medium (EM) containing 10 μM ROCK inhibitor (Y-27632). The EM was replenished three times per week.
After the first 6 days in culture, the ROCK inhibitor was removed from the media. The cells within the ECM mix were expanded for 14 days to form organoids. After 14 days, the media was supplemented with 25 ng/mL of BMP7, and the organoids were cultured for 5 days before replacing the media with hepatocyte differentiation medium (DM). The DM were replenished every 3 days. At day 7 of differentiation, the organoids were used for analyses. […]
We assessed the organoid-forming efficiency at one week in single cell derived organoids (FIG. 1B and FIG. 1C). […]

In another assay the test system is HepGOs. The assay can be described thus: Glucose production assay in HepGOs. The note with it: HepGOs expanded in EM+F+OSM, 24-hour starvation, 24 hours production (FIG. 7D). On the procedure:
Prior to each glucose production assay, organoid cells were serum starved for 3 and 24 hours. The assay was done in 3D organoid culture media, containing no glucose or pyruvate. For substrate glucose production assays, the glucose production basal media (BM) were supplemented with either glycerol, glucagon, or a combination of both. Data were obtained by obtaining media from wells that contained 12-14 Matrigel™ droplets containing approximately 1,400 organoids. Glucose measurements were done enzymatically with a Glucose Assay Kit (Abcam™).
The HepGOs were starved for 3 or 24 hours and then allowed to produce glucose for 24 hours. The glucose production basal media (BM) was supplemented with either glycerol, glucagon, or a combination of the two. Data was obtained pooled organoids with a total of ˜70,000 organoid cells. The scale bar is 100 μm. (**p<0.01, *p<0.05).

The test system of a further assay is PCK1. The assay can be described thus: Q-PCR expression of PCK1 in organoids. The note with it: fresh or frozen and re-expanded organoids, EM conditions C3-C5 (FIG. 5). As for the experimental part:
(§1) RNA was first extracted from the differentiated organoids using Trizol™. RNA was used for cDNA synthesis using the iScript Kit (BioRad™). Quantitative PCR (Q-PCR) was performed for targets of interest including G6PC, PCK1, and AFP using Bio-Rad™ CFX96. Bio Rad™'s SYBR Green (SG), a asymmetrical cyanine dye used as a nucleic acid stain in Q-PCR super mix was used with the target-specific primers. See Table 3, below for a description of the primers used for hepatocyte expression. The data was analyzed using Excel™ and Prism 8™.
(§2) HepGOs were expanded for one month, and then media were supplemented with 25 ng/mL BMP7 for 5 days before replacing the media with hepatocyte DM for one week. The data are from experiments that were done in at least in duplicate with three replicates per condition and were normalized to the endogenous control (β-Actin) and HepG2 GM cultures. The scale bar is 100 μm.

In a further assay the test system is G6PC. The assay can be described thus: Q-PCR expression of G6PC in organoids. The note with it: fresh or frozen and re-expanded organoids, EM conditions C3-C5 (FIG. 5). As for the experimental part: as §1, §2

Take `Cc1cccc(-c2nn(C(=S)Nc3ccccc3)cc2-c2ccnc3ccccc23)n1` [A8301]: the HepGO number entry with HepG2 cells was “significantly limited the 3D culture and expansion of HepG2 cells”. In addition, the “number of organoids formed / expansion” value with primary hepatocytes is “showed the least number of organoids being formed”. glucagon: the glucose production result with HepGOs is on record as “significantly enhanced glucose production”.

B1: BMP7: bone morphogenetic protein 7 (protein, UniProt P18075 293-431, looked up)
Bone morphogenetic protein 7: STGSKQRSQNRSKTPKNQEALRMANVAENSSSDQRQACKKHELYVSFRDLGWQDWIIAPEGYAAYYCEGECAFPLNSYMNATNHAIVQTLVHFINPETVPKPCCAPTQLNAISVLYFDDSSNVILKKYRNMVVRACGCH
Regarding B1, in the assay with HepG2 cells, the HepGO number entry is reported as “slightly but not significantly improved HepGO number”.

B2: OSM: oncostatin M, a member of the IL-6 family of cytokines (protein, UniProt P13725 26-221, looked up)
Oncostatin-M: AAIGSCSKEYRVLLGQLQKQTDLMQDTSRLLDPYIRIQGLDVPKLREHCRERPGAFPSEETLRGLGRRGFLQTLNATLGCVLHRLADLEQRLPKAQDLERSGLNIEDLEKLQMARPNILGLRNNIYCMAQLLDNSDTAEPTKAGRGASQPPTPTPASDAFQRKLEGCRFLHGYHRFMHSVGRVFSKWGESPNRSRR
As to B2, the “induction of PCK1 expression” value in the assay with PCK1 is “tend to decrease at one month post differentiation”. Moreover, the “induction of G6PC expression” value in the assay on G6PC was “tend to decrease at one month post differentiation”.
